The species named for test [1] is Homo sapiens. As to the kind of experiment: Inhibition of human GGT assessed as inactivation rate constant using gamma-Glu-AMC as substrate measured for 10 mins by fluorescence assay.
The species named for test [2] is Homo sapiens. As to the kind of experiment: Inhibition of human GGT at 0.1 mM using gamma-Glu-AMC as substrate measured for 10 mins by fluorescence assay.

SMILES strings stand for the structures. The source made the active and inactive calls. The rule behind the calls is not given here.

Five compounds from ChEMBL document CHEMBL4177591, “Synthesis and evaluation of the inhibitory activity of the four stereoisomers of the potent and selective human γ-glutamyl transpeptidase inhibitor GGsTop” (Bioorg Med Chem Lett, 2017) can be followed below.

As to `CO[P@@](=O)(CC[C@@H](N)C(=O)O)Oc1cccc(CC(=O)O)c1`, the inhibition entry in the test filed under Homo sapiens [1] is “inactive”. In turn, `CO[P@](=O)(CC[C@@H](N)C(=O)O)Oc1cccc(CC(=O)O)c1` yielded a K in the test listed under Homo sapiens [2] of 21.5 M⁻¹ s⁻¹. Consider `COP(=O)(CCC(N)C(=O)O)Oc1cccc(CC(=O)O)c1` (stereo not given), for which, in the test filed under Homo sapiens [1], the K came to 51 M⁻¹ s⁻¹. Turning to `CO[P@](=O)(CC[C@H](N)C(=O)O)Oc1cccc(CC(=O)O)c1`, in the test listed under Homo sapiens [2], the K was 174 M⁻¹ s⁻¹. Regarding `CO[P@@](=O)(CC[C@H](N)C(=O)O)Oc1cccc(CC(=O)O)c1`, in the test listed under Homo sapiens [1], the inhibition result was “inactive”.
